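A five-concentration, 48-hour dose response in 96-well plates underlies each endpoint, interpolated linearly between surrounding concentrations. GI50 = concentration required for 50% inhibition of growth. TGI denotes the concentration required for complete inhibition of growth.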
Experiments:
Experiment in all cases: NCI-60 cell line screen, 48 h
[1] = tested on: KM12 colon
[2] = tested on: DU-145 prostate
[3] = tested on: OVCAR-8 ovarian
[4] = tested on: SNB-75 CNS
[5] = tested on: HL-60(TB) leukemia
[6] = tested on: MDA-MB-435
[7] = tested on: HOP-62 NSCLC
[8] = tested on: SF-539 CNS
[9] = tested on: U251 CNS
[10] = tested on: HT29 colon
[11] = tested on: T-47D breast
[12] = tested on: OVCAR-3 ovarian
[13] = tested on: HCC-2998 colon
[14] = tested on: A549 NSCLC
[15] = tested on: MALME-3M melanoma
[16] = tested on: IGROV1 ovarian
[17] = tested on: MCF7 breast
[18] = tested on: HS 578T breast
[19] = tested on: MDA-MB-231 breast
[20] = tested on: SNB-19 CNS
[21] = tested on: BT-549 breast
[22] = tested on: SF-268 CNS
[23] = tested on: SK-MEL-28 melanoma
[24] = tested on: NCI/ADR-RES ovarian
[25] = tested on: SR leukemia
[26] = tested on: OVCAR-5 ovarian
[27] = tested on: CCRF-CEM leukemia
[28] = tested on: OVCAR-4 ovarian
[29] = tested on: UACC-257 melanoma
[30] = tested on: SK-OV-3 ovarian
[31] = tested on: SF-295 CNS
[32] = tested on: SW-620 colon
[33] = tested on: 786-0 renal
[34] = tested on: NCI-H23 lung
[35] = tested on: HOP-92 NSCLC
[36] = tested on: UO-31 renal
[37] = tested on: HCT-15 colon
[38] = tested on: NCI-H226 lung
[39] = tested on: K-562 leukemia
[40] = tested on: UACC-62 melanoma
[41] = tested on: M14 melanoma
[42] = tested on: CAKI-1 renal
[43] = tested on: SK-MEL-2 melanoma
[44] = tested on: PC-3 prostate
[45] = tested on: LOX IMVI melanoma
[46] = tested on: NCI-H522 lung
[47] = tested on: COLO 205 colon
[48] = tested on: A498 renal
[49] = tested on: EKVX NSCLC
[50] = tested on: ACHN renal
[51] = tested on: SK-MEL-5 melanoma
[52] = tested on: MOLT-4 leukemia
[53] = tested on: RPMI-8226 leukemia
[54] = tested on: RXF 393 renal
[55] = tested on: TK-10 renal
[56] = tested on: NCI-H460 lung
[57] = tested on: SN12C renal

SMILES: Cc1[nH]nc2ncc(C#Cc3cncc(C(=O)Nc4ccc(CN5CCN(C)CC5)c(C(F)(F)F)c4)c3)cc12
- GI50 [1]: < 0.0116 µM
- GI50 [2]: 0.152 µM
- GI50 [3]: 0.413 µM
- GI50 [4]: 0.491 µM
- TGI [4]: 13.6 µM
- GI50 [5]: 0.28 µM
- TGI [5]: 16.9 µM
- GI50 [6]: 0.242 µM
- TGI [6]: 21.1 µM
- GI50 [7]: 0.366 µM
- TGI [7]: 8.82 µM
- GI50 [8]: 0.158 µM
- TGI [8]: 1.08 µM
- GI50 [9]: 0.46 µM
- TGI [9]: 28.1 µM
- GI50 [10]: 0.174 µM
- TGI [10]: 8.57 µM
- GI50 [11]: 0.508 µM
- TGI [11]: > 61.9 µM
- GI50 [12]: 0.401 µM
- GI50 [13]: 0.488 µM
- GI50 [14]: 0.453 µM
- TGI [14]: > 100 µM
- GI50 [15]: 0.0654 µM
- TGI [15]: 0.304 µM
- GI50 [16]: 0.0582 µM
- TGI [16]: 1.73 µM
- GI50 [17]: 0.772 µM
- TGI [17]: > 100 µM
- GI50 [18]: 0.0872 µM
- TGI [18]: 0.929 µM
- GI50 [19]: 0.0789 µM
- TGI [19]: 0.737 µM
- GI50 [20]: 1.03 µM
- TGI [20]: 13.2 µM
- GI50 [21]: 0.301 µM
- TGI [21]: 7.25 µM
- GI50 [22]: 0.289 µM
- GI50 [23]: 0.212 µM
- TGI [23]: 3.74 µM
- GI50 [24]: 5.77 µM
- TGI [24]: > 25.3 µM
- GI50 [25]: 0.14 µM
- GI50 [26]: 0.418 µM
- GI50 [27]: 0.293 µM
- TGI [27]: > 27.5 µM
- GI50 [28]: 0.582 µM
- GI50 [29]: 0.317 µM
- GI50 [30]: 0.174 µM
- TGI [30]: > 51.8 µM
- GI50 [31]: 0.286 µM
- GI50 [32]: 0.183 µM
- TGI [32]: 4.38 µM
- GI50 [33]: 0.173 µM
- TGI [33]: 1.79 µM
- GI50 [34]: 0.439 µM
- TGI [34]: > 100 µM
- GI50 [35]: 0.123 µM
- TGI [35]: 0.808 µM
- GI50 [36]: 0.326 µM
- TGI [36]: 1.98 µM
- GI50 [37]: 0.288 µM
- TGI [37]: 4.04 µM
- GI50 [38]: 0.124 µM
- TGI [38]: 0.953 µM
- TGI [39]: 2.03 µM
- GI50 [40]: 0.0959 µM
- TGI [40]: 0.704 µM
- GI50 [41]: 0.0444 µM
- TGI [41]: 2.07 µM
- GI50 [42]: 0.0647 µM
- TGI [42]: 0.994 µM
- GI50 [43]: 0.0852 µM
- TGI [43]: 0.352 µM
- GI50 [44]: 0.33 µM
- TGI [44]: > 21.8 µM
- GI50 [45]: 0.155 µM
- TGI [45]: 0.993 µM
- GI50 [46]: 0.124 µM
- TGI [46]: 4.73 µM
- GI50 [47]: 0.287 µM
- TGI [47]: 1.91 µM
- GI50 [48]: 0.218 µM
- TGI [48]: 1.24 µM
- GI50 [49]: 0.294 µM
- GI50 [50]: 0.126 µM
- GI50 [51]: 0.308 µM
- TGI [51]: 12.5 µM
- GI50 [52]: 0.155 µM
- GI50 [53]: 0.426 µM
- GI50 [54]: 0.0752 µM
- TGI [54]: 0.6 µM
- GI50 [55]: 0.441 µM
- GI50 [56]: 0.147 µM
- TGI [56]: 4.64 µM
- GI50 [57]: 0.299 µM
- TGI [57]: 11.2 µM
